In patent US20260027221A1, “Targeted Pyrrolobenzodiazapine Conjugates” (BeOne Medicines I GmbH, priority 2023, published 2026):

Columns and labels:
A375 cells = assay: Compounds cellular killing in A375 cancer line (Cell Titer-Glo, 6 days); format: cell-based, human; conditions: Homo sapiens, A-375, 144 h, 6 days incubation, cell viability by Cell Titer-Glo
Method: (§1) A375 (ATCC, CRL-1619). […] The base medium for A375 is DMEM, high glucose, GlutaMAX™ Supplement (Gibco, 10566024). To make the complete growth medium, fetal bovine serum was added to the base mediumat a final concentration of 10% (Gibco, 10099-141C). The cell line was grown in a humidified 5% CO2 atmosphere at 37° C., and was regularly tested for the presence of mycoplasma with MycoAlert™ PLUS Mycoplasma Detection Kit (Lonza, LT07-710).
(§2) Payload direct killing by compounds 1-1 to 1-22 was assessed in A375 and Calu-6 cancer cell lines. Cells were seeded at 1E3/well (A375) 2E3/well (Calu-6) into 96-well plates (Greiner: 655090), 100 μL/well, and incubated at 37° C., 5% CO2, overnight. Fresh growth medium was added containing varying concentrations of compounds, 50 μL/well, and incubated at 37° C., 5% CO2, for 6 days. The cell viability detected by Cell Titer-Glo (Promega, G7573), 70 μL/well. The plates were allowed to incubate at room temperature for 10 minutes to stabilize the luminescent signal. The plates were analyzed with a microplate reader.

Calu-6 cells = assay: Compounds cellular killing in Calu-6 cancer line (Cell Titer-Glo, 6 days); format: cell-based, human; conditions: Homo sapiens, Calu-6, 144 h, 6 days incubation, cell viability by Cell Titer-Glo
Method: as §1, with “Calu-6” for “A375”, “HTB-56).” for “CRL-1619).”, “Eagle's Minimum Essential Medium (ATCC, 30-2003).” for “DMEM, high glucose, GlutaMAX™ Supplement (Gibco, 10566024).”
as §2

Structure (SMILES)	EC50 (A375 cells)	Emax (A375 cells)	EC50 (Calu-6 cells)	Emax (Calu-6 cells)
C=C1CCN2C(=O)c3cc(OC)c(OCCCCCOc4cc5c(cc4OC)C(=O)N4CC6(CC6)C[C@H]4C=N5)cc3N=C[C@@H]2C1 [Compound 1-7, (S)-7-methoxy-8-((5-(((S)-2-methoxy-8-methylene-12-oxo-6a,7,8,9,10,12-hexahydrobenzo[e]pyrido[1,2-a][1,4]diazepin-3-yl)oxy)pentyl)oxy)-1,11a-dihydro-3H,5H-spiro[benzo[e]pyrrolo[1,2-a][1,4]diazepine-2,1′-cyclopropan]-5-one]	0.102 nM	89%	0.017 nM	97.7%
COc1cc2c(cc1OCCCOc1cc3c(cc1OC)C(=O)N1CC4(CC4)C[C@H]1CN3)N=C[C@@H]1Cc3ccccc3CN1C2=O [Compound 1-15, (S)-2-methoxy-3-(3-(((S)-7-methoxy-5-oxo-5,10,11,11a-tetrahydro-1H,3H-spiro[benzo[e]pyrrolo[1,2-a][1,4]diazepine-2,1′-cyclopropan]-8-yl)oxy)propoxy)-7,12-dihydrobenzo[5,6][1,4]diazepino[1,2-b]isoquinolin-14(6aH)-one]	0.134 nM	99.5%	0.045 nM	99.7%
COc1cc2c(cc1OCc1cccc(COc3cc4c(cc3OC)C(=O)N3CC5(CC5)C[C@H]3CN4)c1)NC[C@@H]1CC3(CC3)CN1C2=O [Compound 1-10]	> 1 nM	42%	0.358 nM	84.7%
COc1cc2c(cc1OCCCCCOc1cc3c(cc1OC)C(=O)N1Cc4ccccc4C[C@H]1C=N3)N=C[C@@H]1CC3(CCN1C2=O)CC3 [Compound 1-20, (S)-2-methoxy-3-((5-(((S)-2-methoxy-12-oxo-6a,9,10,12-tetrahydro-7H-spiro[benzo[e]pyrido[1,2-a][1,4]diazepine-8,1′-cyclopropan]-3-yl)oxy)pentyl)oxy)-7,12-dihydrobenzo[5,6][1,4]diazepino[1,2-b]isoquinolin-14(6aH)-one]	0.064 nM	95.9%	0.016 nM	98.3%
COc1cc2c(cc1OCCNCCOc1cc3c(cc1OC)C(=O)N1CC4(CC4)C[C@H]1C=N3)N=C[C@@H]1CC3(CC3)CN1C2=O [Compound 1-13, (11aS,11a″S)-8,8″-((azanediylbis(ethane-2,1-diyl))bis(oxy))bis(7-methoxy-1,11a-dihydro-3H,5H-spiro[benzo[e]pyrrolo[1,2-a][1,4]diazepine-2,1′-cyclopropan]-5-one)]	9.12 nM	100%	1.62 nM	99.7%
COc1cc2c(cc1OCCCCCOc1cc3c(cc1OC)C(=O)N1CC4(CC4)C[C@H]1C=N3)N=C[C@@H]1Cc3ccccc3CN1C2=O [Compound 1-1, (S)-2-methoxy-3-((5-(((S)-7-methoxy-5-oxo-5,11a-dihydro-1H,3H-spiro[benzo[e]pyrrolo[1,2-a][1,4]diazepine-2,1′-cyclopropan]-8-yl)oxy)pentyl)oxy)-7,12-dihydrobenzo[5,6][1,4]diazepino[1,2-b]isoquinolin-14(6aH)-one]	0.005 nM	99.8%	0.002 nM	99.5%
COc1cc2c(cc1OCCCCCOc1cc3c(cc1OC)C(=O)N1CC4(CC4)C[C@H]1C=N3)N=C[C@@H]1CCCCN1C2=O [Compound 1-16, (S)-7-methoxy-8-((5-(((S)-2-methoxy-12-oxo-6a,7,8,9,10,12-hexahydrobenzo[e]pyrido[1,2-a][1,4]diazepin-3-yl)oxy)pentyl)oxy)-1,11a-dihydro-3H,5H-spiro[benzo[e]pyrrolo[1,2-a][1,4]diazepine-2,1′-cyclopropan]-5-one]	0.146 nM	89.6%	0.038 nM	92.3%
